In article PMC6584114, “Metabolism of IMM-H004 and Its Pharmacokinetic-Pharmacodynamic Analysis in Cerebral Ischemia/Reperfusion Injured Rats” (Frontiers in Pharmacology, 2019):

Columns and labels:
[1] = test system: rat liver microsomes (RLMs); assay: Kinetics of IMM-H004 demethylation (M1 and M2 formation) in rat liver microsomes; assay type: in vitro ADME; details: substrate IMM-H004
Procedure: (§1) To compare the metabolic capability of IMM-H004 demethylation in rat and human liver microsomes, the kinetics of M1 and M2 formation in HLMs or RLMs were determined. Enzyme kinetic experiments were performed in triplicate. The incubation mixtures contained HLM/RLM (1 mg protein/ml), IMM-H004 (0.1–1,800 μM), and NADPH (1.2 mM) in a final volume of 0.2 ml Tris-HCl buffer (50 mM, pH 7.4) containing 5 mM MgCl2. The reaction was incubated at 37°C for 20 min and stopped by adding 200 μL of ice-cold acetonitrile containing IS (100 ng/ml). After vortex-mixing and centrifugation, M1 and M2 in the supernatant were analyzed by LC-MS/MS.
(§2) The LC-MS/MS system consisted of Shimadzu 30A UPLC and API 4000 triple quadruple mass spectrometer (AB SCIEX, USA). Data acquisition and analysis were accomplished using Analyst 1.5.2 software. The analytes and IS were chromatographed by injection of 1 μL sample. The mobile phases consisted of solvent A (0.5% formic acid in water) and solvent B (0.5% formic acid in methanol) at a flow rate of 0.3 ml/min on an Eclipse Plus C18 column (2.1 mm × 50 mm, 3.5 μm, Agilent, USA), and the operating temperature was 40°C. The elution condition was 10% solvent B for 0.7 min, ascending to 98% B in 2.3 min, holding for 3.0 min and reequilibrating to 10% B within 0.1 min and maintained for 2.4 min (Jiang JW, 2018). The specific transitions monitored were 305→248 for IMM-H004, 291→234 for M1, 291→248 for M2, 481→305 for IMM-H004G, 385→305 for M4, and 260→183 for IS.

[2] = test system: human liver microsomes (HLMs); assay: Kinetics of IMM-H004 demethylation (M1 and M2 formation) in human liver microsomes; assay type: in vitro ADME; details: substrate IMM-H004
Procedure: as §1, §2

[3] = test system: human liver microsomes (HLMs), UGT; assay: Kinetics of IMM-H004G formation (glucuronidation) in UDPGA-supplemented human liver microsomes; assay type: in vitro ADME; details: substrate IMM-H004
Procedure: To explore glucuronidation difference of IMM-H004 between humans and rats, the kinetics of IMM-H004G formation in UDPGA-supplemented HLMs and RLMs were determined. The incubation mixtures consisted of HLMs or RLMs (0.025 mg protein/ml), alamethicin (50 μg/mg protein), IMM-H004 (0.5–2,500 μM), and UDPGA (5 mM) in a final volume of 0.2 ml Tris-HCl buffer (50 mM, pH 7.4) containing 5 mM MgCl2. HLM or RLM was preincubated with alamethicin on ice for 15 min. The reaction was incubated at 37°C for 10 min and quenched by adding 200 μL of ice-cold acetonitrile containing IS (100 ng/ml). After vortex-mixing and centrifugation, IMM-H004G in the supernatant was analyzed by LC-MS/MS.
as §2, with “The elution condition was 10% solvent B for 0.7 min, ascending to 98% B in 2.3 min, holding for 3.0 min and reequilibrating to 10% B within 0.1 min and maintained for 2.4 min (Jiang JW, 2018).” left out

[4] = test system: plasma malondialdehyde (MDA); assay: Plasma MDA suppression (PD) in MCAO/R rats; assay type: in vivo, rat; details: iv IMM-H004 citrate 10 mg/kg after reperfusion
Procedure: The plasma pharmacokinetics (PK) and pharmacodynamics (PD) of IMM-H004 and IMM-H004G were investigated in a cerebral ischemia-reperfusion rat model produced by middle cerebral artery occlusion/reperfusion (MCAO/R) after iv administration of IMM-H004. In brief, rats underwent a 1-h MCAO and then received IMM-H004 citrate (10 mg/kg, dissolved in saline to yield a concentration of 2 mg/ml) immediately after reperfusion, an effective dosing time as reported ([Zuo et al., 2015]; [Yang et al., 2017]). For sham surgery, all the arteries were exposed for the surgical period, but the filament was not inserted into the MCA. Blood samples were collected through external jugular vein cannula into heparinized tubes at 0.033, 0.167, 0.5, 1, 2, 4, 6, 8, 12, 24, 36, and 48 h postdose for IMM-H004 and IMM-H004G detection (50 μL of blood at each time point) and at 0.5, 1, 2, 4, 7, and 10 h postdose for malondialdehyde (MDA) detection (80 μL of blood at each time point). Plasma was immediately separated by centrifugation at 900×g for 5 min. Plasma concentrations of IMM-H004 and IMM-H004G in ischemia-reperfusion rats were determined by LC-MS/MS analysis. The PK parameters were calculated by noncompartmental analysis using WinNonlin Version 6.1 (Pharsight, Mountain View, CA). Plasma MDA concentrations in ischemia-reperfusion and sham rats within 24 h were estimated by enzyme-linked immunosorbent assay.

MCAO/R rats = assay: Neuroprotection in transient MCAO/R rats (infarct volume, neurological score); assay type: in vivo, rat; details: 10 mg/kg iv after reperfusion, 24 h, vs model
Excerpt: Transient MCAO/R was applied to compare the neuroprotection of IMM-H004 and IMM-H004G. Rats were fasted overnight with free access to water and randomly assigned to different groups. Rats were anesthetized with a mixture of 5% isoflurane and 95% oxygen and maintained with a mixture of 3% isoflurane and 97% oxygen during the surgical procedure. A 4-0 nylon thread, the tip of which was burned (diameter 0.36 mm), was inserted into the right internal carotid artery and advanced until the origin of the right MCA was occluded. After 60 min of the occlusion, the thread was withdrawn to allow reperfusion, and then the rats were returned to the chamber. Saline or edaravone at dose of 6 mg/kg or IMM-H004 citrate and IMM-H004G at dose of 10 mg/kg (dissolved in saline to yield a concentration of 2 mg/ml) were administered by intravenous injection immediately after reperfusion.
The rats were assessed for neurologic deficits at 24 h after reperfusion according to Zea Longa’s five-point scale. […] The animals without symptoms of neurological impairment or dying after the surgery were rejected. All animals were killed 24 h after reperfusion. Brains of the animals were removed and cut into 2 mm-thick slices, for a total of six slices per animal. The slices were immersed in a 2% solution of 2,3,5-triphenyltetrazolium chloride in phosphate buffered saline at 37°C for 20 min and then fixed in 4% formaldehyde overnight. Images of the slices were obtained with a scanner and a computer. The infarct area and the total area were calculated by tracing the areas on the computer screen with Image J. The percentage of the infarct volume was expressed as the infarct volumes (white parts)/the whole volume of the cortex.

COc1cc(O)cc2oc(=O)c(N3CCN(C)CC3)c(C)c12 [IMM-H004, 7-hydroxy-5-methoxy-4-methyl-3-(4-methylpiperazin-1-yl)-coumarin]
K m of M1 formation (6-demethylation) [1]: 1,244.0 μM
K m of M2 formation (N-demethylation) [1]: 111.9 µM
V max of M1 formation (6-demethylation) [1]: 1.34 nmol/min/mg protein
V max of M2 formation (N-demethylation) [1]: 0.12 nmol/min/mg protein
K m of M1 formation (6-demethylation) [2]: 2,935.0 μM
K m of M2 formation (N-demethylation) [2]: 491.4 µM
V max of M1 formation (6-demethylation) [2]: 1.99 nmol/min/mg protein
V max of M2 formation (N-demethylation) [2]: 0.07 nmol/min/mg protein
K m of IMM-H004G formation (glucuronidation) [3]: 119.3 µM
V max of IMM-H004G formation (glucuronidation) [3]: 3.25 nmol/min/mg protein
duration of plasma MDA lowering after administration [4]: at least 10 h
effect on plasma MDA level ([4]; vs MCAO/R group): significantly lower the increased MDA level at 2 h
infarct volume (MCAO/R rats): markedly reduced (p < 0.01)
neurological test score (MCAO/R rats): significant improvement (p < 0.01)
